Results on 8 molecules are retold here after patent publication US20090253709A1 (NATIONAL DEFENSE MEDICAL CENTER, priority 2008, published 2009).

In one data set the test system is different cancer cell lines. Description: In vitro cytotoxicity, Development Therapeutics Program, summary over all cell lines. The class given is cell-based. Conditions: 1.0×10^−5 M. The source says:
From the in vitro experiments of the Development Therapeutics Program of the Cancer Research Institute, the United States, it was known that the synthetic heterocyclic anthraquinone derivatives of the present invention have different inhibition levels to the different cancer cell lines under the concentration of 1.0×10^−5 M. Please refer to Table 2, which is the result of in vitro cytotoxicity of 2,7-disubstituted anthraquinone derivatives of the present invention.
`CN(C)CC(=O)Nc1ccc2c(c1)C(=O)c1cc(NC(=O)CN(C)C)ccc1C2=O` [Compound 8, 2,7-Bis[2-(dimethylamino)acetamido]anthraquinone]: the “Cellular growth rate (%), Mean” value is given as 28.70%. In the case of `CCN(CC)CCC(=O)Nc1ccc2c(c1)C(=O)c1cc(NC(=O)CCN(CC)CC)ccc1C2=O` [Compound 16, 2,7-Bis[3-(diethylamino)propionamido]anthraquinone], the “Cellular growth rate (%), Mean” value is 16.33%. Consider `O=C(CCN1CCCC1)Nc1ccc2c(c1)C(=O)c1cc(NC(=O)CCN3CCCC3)ccc1C2=O` [Compound 18, 2,7-Bis[3-(pyrrolidino)propionamido]anthraquinone], for which the “Cellular growth rate (%), Mean” value stood at 30.97%. The same measure, in the same setting: with `CC(=O)Nc1ccc2c(c1)C(=O)c1cc(NC(C)=O)ccc1C2=O` [Compound 26, 2,7-Bis(acetamido)anthraquinone] the figure was 99.06%.

For `O=C1c2ccc(NC(=O)C3CC3)cc2C(=O)c2cc(NC(=O)C3CC3)ccc21` [Compound 32, 2,7-Bis(cyclopropanecarbonamido)anthraquinone], the “Cellular growth rate (%), Mean” value worked out at 91.54%.

The next data set deals with H1299. Description: MTT assay in H1299 cells. The class given is cell-based. To be noted: MTT assay, H1299. Put shortly: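 H1299 cells, 2×10^3 per well, treated with drug 48 h. MTT (5 mg/ml stock) added for 4 h at 37° C, then SDS/DMF lysis overnight; absorbance at 570 nm gives viability, used alongside SEAP reporter readout to correct for cell number.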
As to `O=C(CN1CCCCC1)Nc1ccc2c(c1)C(=O)c1cc(NC(=O)CN3CCCCC3)ccc1C2=O` [Compound 7, 2,7-Bis[2-(piperidino)acetamido]anthraquinone], the “cytotoxicity to H1299 cancer cells compared with mitoxantrone” value (from here on “cytotoxicity … compared with mitoxantrone”) was “better than”.

Regarding `CCNCC(=O)Nc1ccc2c(c1)C(=O)c1cc(NC(=O)CNCC)ccc1C2=O` [Compound 10, 2,7-Bis[2-(ethylamino)acetamido]anthraquinone], the “cytotoxicity … compared with mitoxantrone” value is reported as “better than”. Turning to `O=C1c2ccc(NC(=O)C3CC3)cc2C(=O)c2cc(NC(=O)C3CC3)ccc21` [Compound 32, 2,7-Bis(cyclopropanecarbonamido)anthraquinone], the “cytotoxicity … compared with mitoxantrone” value was “better than”.

Staying with this data set, now noted: low concentration (1 μM).
`O=C(Cc1ccccc1)Nc1ccc2c(c1)C(=O)c1cc(NC(=O)Cc3ccccc3)ccc1C2=O` [Compound 30, 2,7-Bis(phenylacetamido)anthraquinone]: the “MTT assay (cellular cytotoxicity)” value was 107±7%.
